{"source": "a melting point compilation (Tetko et al.; mined from patent text by program, amines drawn as free bases though some values may be those of a salt)", "note": "Residues, ends and D or L forms follow the SMILES beside them.", "data": [{"units": {"melting point": "°C"}, "values": [{"compound": "CCC1(CCCN=[N+]=[N-])C(=O)NC(=O)NC1=O", "melting point": "182 to 184"}, {"compound": "CNC(=C[N+](=O)[O-])NCCCCc1nc[nH]c1Br", "melting point": "145 to 148"}, {"compound": "O=C1CCC(N2C(=O)c3cccc(Nc4ccc5ccccc5c4)c3C2=O)C(=O)N1", "note": "(stereo unspecified)", "melting point": "235 to 237"}, {"compound": "CNc1nc(C)c(C(=O)c2ccc(N)c(N)c2)s1", "melting point": "115 to 125"}, {"compound": "CCCCCCCCC=CCCCCCCCC(=O)OCCCCCCCCCC", "melting point": 70}, {"compound": "CCCCc1nn(C)c2c1CCc1c(C(N)=O)sc(Oc3ccc4c(c3)OCO4)c1-2", "melting point": "161 to 162"}, {"compound": "CCOC(=O)/C=C\\C=C(c1ccccc1)c1ccccc1", "melting point": "34 to 35"}, {"compound": "O=C1c2ccccc2C(=O)N1Cc1ncc(C(F)(F)F)cc1Cl", "melting point": "145 to 146"}, {"compound": "COC(=O)[C@H]1O[C@@H](n2cnc3c(Cl)ncnc32)[C@H](OC(C)=O)[C@@H]1N=[N+]=[N-]", "melting point": "94 to 96"}, {"compound": "CSC(=C[N+](=O)[O-])NCCSCc1ncccc1Br", "melting point": "79 to 80"}, {"compound": "N#Cc1ccccc1-c1ccc(CCl)cc1", "melting point": "125 to 126"}, {"compound": "CC(C)[C@H](NC(=O)N(C)Cc1nccs1)C(=O)N[C@@H](Cc1ccccc1)C[C@H](O)[C@H](Cc1ccccc1)NC(=O)[C@@H](NC(=O)N(C)Cc1nccs1)C(C)C", "melting point": "195 to 197"}, {"compound": "CCC(=O)c1cc(Cl)c(C)cc1OC", "melting point": 79}, {"compound": "CCSc1ccnc2sc(C(N)=O)c(N)c12", "melting point": "230 to 235"}, {"compound": "Cc1cc(-c2cc(C(F)(F)F)n3ncc(C(=O)Nc4nc(C)c(S(=O)(=O)NC(C)(C)CO)s4)c3n2)ccc1C(F)(F)F", "melting point": 272}, {"compound": "CC(C)CCCC(C)C1CCC2C3CC=C4CC(OC(=O)C(C)O)CCC4(C)C3CCC12C", "note": "(stereo unspecified)", "melting point": "120 to 122"}, {"compound": "O=C(O)C(=O)c1ccc(OCCOc2cc3ccccc3c3ccccc23)cc1", "melting point": "179 to 180"}, {"compound": "Brc1ccccc1OCc1ccc2ccccc2n1", "melting point": "115 to 117"}, {"compound": "COc1ccc(Cl)cc1CN(CCO)c1ncnc2c1ncn2C1OC(CO)C(O)C1O", "note": "(stereo unspecified)", "melting point": "98 to 100"}, {"compound": "COC(=O)C1(CCCN2CCN(c3ccc(O)cc3)CC2)Sc2cc(OC)ccc2CCC1O", "note": "(stereo unspecified)", "melting point": "120 to 124"}, {"compound": "CC(=O)Oc1cc(N(C)C2CCCCC2)c2ccccc2c1OC(C)=O", "melting point": "103 to 105"}, {"compound": "COc1nc2ncnc(NCc3ccco3)c2[nH]1", "melting point": "196 to 198"}, {"compound": "Cc1ccccc1C(=O)Nc1ccc(-n2nc(C(F)(F)F)cc2C(F)(F)F)cc1", "melting point": "165 to 167"}, {"compound": "CC(=O)Nc1nc(C(Cl)(Cl)Cl)ns1", "melting point": 193}, {"compound": "COc1cc2c(Nc3ccc(Sc4nccn4C)c(Cl)c3)c(C#N)cnc2cc1OCCCN1CCC(N2CCCC2)CC1", "melting point": "196 to 198"}, {"compound": "CC(C)(C)OC(=O)Nc1ccc(C#Cc2ccc(OC(F)(F)F)cc2)cc1N", "melting point": "167 to 169"}, {"compound": "FC(F)(F)c1ccc(N=c2ccc3nc4ccccc4sc-3c2)cc1", "melting point": "207 to 208"}, {"compound": "Cc1ccc(C(=O)/C=C/C(=O)O)o1", "melting point": "159 to 162"}, {"compound": "CC(C)(C)OCCOc1cc(NC(=O)OC(C)(C)C)c(NC(=O)CC(=O)c2cccc(-n3ccnc3)c2)cc1C#Cc1ccc(F)cc1", "melting point": "62 to 65"}, {"compound": "CCOC(=O)C(C)Oc1ccc(N(C)c2ncnc3cc(Cl)ccc23)cc1", "note": "(stereo unspecified)", "melting point": 92}, {"compound": "NC(=O)CCC(N)C(=O)NCC(=O)NCC(=O)NC(CO)C(=O)NC(CC(N)=O)C(=O)NC(Cc1ccccc1)C(N)=O", "note": "(stereo unspecified) (H-QGGSNF-NH2; configuration not given here)", "melting point": "202 to 204"}, {"compound": "COC(=O)C=Cc1ccc(Br)nc1", "melting point": 150}, {"compound": "Cc1nn(-c2ccccn2)cc1COc1ccc(C=O)cc1", "melting point": "84 to 85"}, {"compound": "O=C(NS(=O)(=O)c1ccccc1-c1ccccc1)Oc1ccccc1", "melting point": "114 to 117"}, {"compound": "ClCc1cccc2cc(-c3ccccc3)oc12", "melting point": "72 to 73"}, {"compound": "CC(C)c1cc(C(=O)Nc2ccc(C(=O)O)cc2)oc1C(C)C", "melting point": "120 to 121"}, {"compound": "CC(C)N1C(=O)CC(C(=O)O)C1c1ccccc1", "note": "(stereo unspecified)", "melting point": "126 to 134"}, {"compound": "CC(C)CCC(=O)NC[C@H](O)[C@H](O)[C@H](CC1CCCCC1)NC(=O)OC(C)(C)C", "melting point": "179 to 183"}, {"compound": "O=c1c2ccccc2c(Br)cn1C1CN2CCC1CC2", "note": "(racemic)", "melting point": "208 to 209"}, {"compound": "NC(=S)NCc1cccs1", "melting point": "99 to 101"}, {"compound": "CCNC(=O)c1nc(Cl)c(Cl)[nH]1", "melting point": 146}, {"compound": "Cc1ccc2nc3cc(C)c(=O)cc-3sc2c1", "melting point": 177}, {"compound": "COc1cc(Nc2nccc(-c3ccc([N+](=O)[O-])cc3)n2)cc(OC)c1OC", "melting point": 196}, {"compound": "CS(=O)(=O)c1ccc(-c2oc(CCC(N)=O)nc2-c2ccc(F)cc2)cc1", "melting point": "193 to 195"}, {"compound": "CCOc1nc(C)nc(N)n1", "melting point": "172 to 174"}, {"compound": "CCN1CC2=C3C(=NN(c4ccc(C(C)C)cc4Br)C(=O)N3CC2)C(C)=N1", "melting point": "144 to 146"}, {"compound": "O=[N+]([O-])c1ccc(F)cc1OCC(F)(F)F", "melting point": "44 to 45"}, {"compound": "O=C(O)Cc1c(C(=O)c2ccc(Cl)cc2)[nH]c2cc(C(F)(F)F)ccc12", "melting point": "155 to 160"}, {"compound": "CC(=O)OCC1OC(SCCCc2ccccc2)C(OC(C)=O)C(OC(C)=O)C1OC(C)=O", "note": "(stereo unspecified)", "melting point": "73 to 74"}, {"compound": "CCOc1cc(OC)cc(O)c1C(=O)C=Cc1ccc(OC)cc1", "melting point": 124}, {"compound": "COCOc1cc(F)ccc1-c1cc(-c2cccc(Br)c2)c(C#N)c(N)n1", "melting point": "165 to 166"}, {"compound": "CCOC(=O)C(O)(CC(=O)c1ccc(C)c(F)c1)C(=O)OCC", "melting point": "68.7 to 69"}, {"compound": "COc1cc(O)cc2nc(-c3ccc(O)cc3)oc12", "melting point": "225 to 228"}, {"compound": "Cc1ccc2[nH]c(C(=O)c3ccc(Cl)cc3)c(CC(=O)O)c2c1", "melting point": "194 to 197"}, {"compound": "Cc1nc(I)cn1-c1ccc(F)cc1", "melting point": 151}, {"compound": "O=C1C(=O)c2ccccc2C2=C1SCC(CN1CCN(c3ccc(F)cc3)CC1)O2", "note": "(stereo unspecified)", "melting point": "180 to 182"}, {"compound": "CCOC(=O)c1cc([N+](=O)[O-])c(Cl)nc1C(=O)OCC", "melting point": "70 to 72"}, {"compound": "O=C(NCCCSc1ccncc1)c1ccco1", "melting point": "98 to 99"}, {"compound": "CN1CCC(c2c[nH]c3ccc(NS(=O)(=O)c4ccccc4)nc23)CC1", "melting point": "148 to 150"}, {"compound": "Cc1cc2c(cc1O)C(C)(C)CC1(CC(C)(C)c3cc(OCCCn4nc(CO)cc4C)c(C)cc3O1)O2", "note": "(stereo unspecified)", "melting point": "217 to 219"}, {"compound": "CC1=C(C(=O)OC(C)C)C(c2cccc(Cl)c2)N(C(=O)Oc2ccc([N+](=O)[O-])cc2)CN1", "note": "(stereo unspecified)", "melting point": "165 to 167"}, {"compound": "c1ccc(C2SC3(CCNCC3)c3ccccc32)cc1", "note": "(stereo unspecified)", "melting point": "142 to 144"}, {"compound": "Nc1ncc2c(n1)CCC(=O)C2", "melting point": "214 to 217"}, {"compound": "CON=C(c1nnco1)c1ccccc1COc1cc(C)ccc1C", "melting point": "134 to 135"}, {"compound": "N#CCc1ccc(Oc2ccc3c(c2)S(=O)(=O)NC2CCCN32)cc1", "note": "(stereo unspecified)", "melting point": "156 to 158"}, {"compound": "CCN1C(=O)C(C(=O)Nc2cccc(S(C)=O)c2)c2cc3c(cc21)CCO3", "note": "(stereo unspecified)", "melting point": "180 to 185"}, {"compound": "Cc1cc2nc(Cl)c3cccnc3n2n1", "melting point": 202}, {"compound": "O=C1c2cc(O)ccc2CC1Cc1ccccc1", "note": "(stereo unspecified)", "melting point": "140 to 143"}, {"compound": "CC(C)(C)OC(=O)N1CCC(OCc2ccccc2)C1CC(=O)Cn1cnc2cccc(F)c2c1=O", "note": "(stereo unspecified)", "melting point": 221}, {"compound": "O=C(c1cc(Cl)ccc1Cl)N1CCNC1=Nc1ccc(Cl)cc1Cl", "melting point": "205 to 206"}, {"compound": "COc1ccc(C(=O)CC2CCN(CCn3c(=O)[nH]c4ccccc43)CC2)cc1", "melting point": 156}, {"compound": "CC(=O)Nc1nc2c(Oc3cc(-c4ccc5c(c4)OC(C)(C)C5)ncn3)cccc2s1", "melting point": "224 to 225"}, {"compound": "O=C(Nc1cccc(S(=O)(=O)NCc2ccccc2)c1)c1cnn2c(C(F)F)cc(-c3ccc(C(F)(F)F)cc3)nc12", "melting point": 230}, {"compound": "CC(C)NC(=O)Nc1c(C(=O)c2ccccc2)[nH]c2cc(Cl)ccc12", "melting point": "265 to 266"}, {"compound": "COc1ccc(-c2nc(CO)c[nH]2)cc1OC1CCCC1", "melting point": "188 to 190"}, {"compound": "COc1ccc2[nH]c(SCC3(N4CCCC4)NC=NC(N4CCCC4)=C3C)nc2c1", "note": "(stereo unspecified)", "melting point": "104 to 106"}, {"compound": "CN(Cc1ccc(NC(=O)C2=Cc3cc(-c4ccc(N5CCOCC5)cc4)ccc3SCC2)cc1)C1CCOCC1", "melting point": "255 to 259"}, {"compound": "CCCC(=O)Nc1n[nH]c2cc(-c3ccc(O)cc3)ccc12", "melting point": 235}, {"compound": "COCCO[C@H]1c2ccn3c(C)c(C)nc3c2N[C@@H](c2ccccc2)[C@@H]1O", "melting point": "130 to 131"}, {"compound": "CN(C)c1ncc(-c2cccc(Nc3ccc(-c4ccoc4)cc3[N+](=O)[O-])c2)cn1", "melting point": "181 to 182"}, {"compound": "CCOC(=O)CC1SC(c2cc(C(C)(C)C)c(O)c(C(C)(C)C)c2)N(CCCBr)C1=O", "note": "(stereo unspecified)", "melting point": "154 to 155"}, {"compound": "Cc1cc(F)c(Cl)cc1[N+](=O)[O-]", "melting point": "57 to 58"}, {"compound": "CCCCOC(=O)NCCC(=O)O", "melting point": 50.5}, {"compound": "Nc1ccc(CCc2ccc(OCc3ccccc3)c(OCc3ccccc3)c2)cc1", "melting point": "97 to 101"}, {"compound": "COC(=O)c1nc(Cl)c(Cl)c(N)c1OC", "melting point": "119 to 121"}, {"compound": "CCONC(=O)Cc1ccc2cc(OC)ccc2c1", "melting point": "196 to 197"}, {"compound": "Brc1ccc(C(Br)Br)nc1", "melting point": "59 to 61"}, {"compound": "CCOC(=O)c1cn(CC)c2nc(N3CCN(C=O)CC3)ncc2c1=O", "melting point": 195}, {"compound": "COc1ccc(S(=O)CC(C)=O)cc1", "note": "(single isomer, unassigned; (-))", "melting point": "56 to 58"}, {"compound": "NNC(=O)c1ccn2ncnc2c1", "melting point": "244 to 245"}, {"compound": "CCN(CC)C(=O)C(=O)c1c[nH]c2c1ccc1c3ccccc3[nH]c12", "melting point": "> 295"}, {"compound": "Nc1nc(-c2cc(Cl)ccc2Cl)nc(N2CCC2)n1", "melting point": "207 to 208"}, {"compound": "Cn1cc(C2=C(c3c4n(c5ccccc35)CCC(C#N)C4)C(=O)NC2=O)c2ccccc21", "note": "(stereo unspecified)", "melting point": "312 to 313"}, {"compound": "Cc1c(C)c2c(c(C)c1NCc1ccc(Cl)cc1)C(c1ccc(C(C)C)cc1)C(C)(C)O2", "note": "(stereo unspecified)", "melting point": "93 to 94"}, {"compound": "Cc1ccc(Cl)cc1N1CN(C)CNC1=S", "melting point": "171 to 173"}, {"compound": "C=CCn1ncc(=O)[nH]c1=O", "melting point": 133}, {"compound": "ClCc1coc(-c2ccsc2)n1", "melting point": "91 to 92"}, {"compound": "CCCC1=C(c2ccccc2)[C@@H](c2ccccc2)OC1=O", "melting point": "104 to 105"}, {"compound": "CCCCCN1C(=O)C2(OCc3cc4c(cc32)OCO4)c2ccccc21", "note": "(stereo unspecified)", "melting point": "113 to 115"}, {"compound": "O=[N+]([O-])c1cc(S(=O)c2ccccc2)ccc1Cl", "note": "(stereo unspecified)", "melting point": "86 to 87"}, {"compound": "O=C(Nc1cccc(S(=O)(=O)NCCc2ccncc2)c1)c1cnn2c(C(F)(F)F)cc(-c3ccc(C(F)(F)F)cc3)nc12", "melting point": 236}]}]}
